Measurements reported in EPA's ToxRefDB 2.

Tests used:
[1] = test system: mouse; conditions: Subchronic oral toxicity in rodents, b6c3f1, Gavage/Intubation, dose end: 14 week, group: systemic
[2] = test system: mouse; conditions: Combined chronic toxicity/carcinogenicity, b6c3f1, Oral, Gavage/Intubation, dose end: 104 week, group: systemic
[3] = test system: rat; conditions: Combined chronic toxicity/carcinogenicity, fischer, Oral, Gavage/Intubation, dose end: 104 week, group: systemic
[4] = test system: mouse; conditions: Multigenerational reproductive toxicity study, cd1, Oral, Water, dose end: 2 generation
[5] = test system: rat; conditions: Prenatal developmental toxicity study, sprague dawley, Oral, Gavage/Intubation, dose end: 19 GD
[6] = test system: rat; conditions: Subchronic oral toxicity in rodents, fischer, Gavage/Intubation, dose end: 14 week, group: systemic
[7] = test system: rabbit; conditions: Prenatal developmental toxicity study, new zealand white, Oral, Gavage/Intubation, dose end: 29 GD
[8] = test system: dog; conditions: Chronic toxicity, beagle, Oral, Capsule, dose end: 52 week, group: systemic
[9] = test system: mouse; conditions: Carcinogenicity; cd1; Oral; Gavage/Intubation; dose end: 78 week; group: systemic; systemic / in life observation / body weight / body weight + systemic / in life observation / body weight / body weight gain
[10] = test system: rat; conditions: Subchronic oral toxicity in rodents, fischer, Gavage/Intubation, dose end: 13 week, group: systemic
[11] = test system: rat; conditions: Chronic toxicity, sprague dawley, Oral, Gavage/Intubation, dose end: 24 month, group: systemic
[12] = test system: mouse; conditions: Subchronic oral toxicity in rodents, b6c3f1, Gavage/Intubation, dose end: 13 week, group: systemic
[13] = systemic / pathology microscopic / pancreas / hyperplasia + systemic / pathology microscopic / pancreas / inflammation + systemic / …
[14] = systemic / in life observation / body weight / body weight
[15] = systemic / pathology microscopic / pancreas / hyperplasia
[16] = systemic / in life observation / body weight / body weight + systemic / pathology microscopic / pancreas / atrophy
[17] = group: offspring, systemic / in life observation / body weight / offspring (pup) weight + systemic / in life observation / food consumption / food consumption…
[18] = group: parental, systemic / in life observation / body weight / body weight + systemic / organ weight / ovary / relative to body weight + systemic / organ …
[19] = group: parental, systemic / in life observation / water consumption / water consumption
[20] = group: reproductive, reproductive / offspring survival early / litter size / litter size + reproductive / reproductive performance / estrous cycle / length + …
[21] = group: developmental, developmental / developmental malformation / bone / unossified + systemic / in life observation / body weight / fetal weight
[22] = group: maternal, systemic / in life observation / body weight / body weight + systemic / in life observation / body weight / body weight gain + systemic / …
[23] = systemic / in life observation / body weight / body weight + systemic / in life observation / body weight / body weight gain + systemic / …
[24] = group: developmental, systemic / in life observation / body weight / fetal weight
[25] = group: maternal, reproductive / reproductive performance / aborted / aborted + systemic / in life observation / body weight / body weight + systemic / in …
[26] = systemic / clinical chemistry / albumin / albumin + systemic / clinical chemistry / albumin-globulin ratio / albumin-globulin ratio + …
[27] = systemic / hematology / leukocyte (wbc) count differential / leukocyte (wbc) + systemic / pathology microscopic / bone marrow / …
[28] = systemic / clinical chemistry / alkaline phosphatase (alp/alk) / alkaline phosphatase (alp/alk) + systemic / clinical chemistry / urea …
[29] = systemic / pathology microscopic / liver / hyperplasia
[30] = systemic / pathology microscopic / liver / hyperplasia + systemic / pathology microscopic / bone marrow / [other]
[31] = systemic / in life observation / body weight / body weight + systemic / in life observation / body weight / body weight gain + systemic / in…
[32] = systemic / organ weight / liver / absolute + systemic / organ weight / liver / relative to body weight

`NC=O` [Formamide] was tested, and the LEL ([1]; systemic / in life observation / body weight / body weight gain + systemic / hematology / platelet / platelet) was 40 mg/kg/day, the LOAEL ([1]; systemic / pathology microscopic / pancreas / hyperplasia + systemic / pathology microscopic / pancreas / inflammation + systemic / in life …) was 80 mg/kg/day and the NEL [1, 13] was 20 mg/kg/day. It also gave an NOAEL [1, 13] of 40 mg/kg/day, an LOAEL [2, 14] of 80 mg/kg/day and an NOAEL ([2]; systemic / in life observation / body weight / body weight + systemic / pathology microscopic / liver / adenoma/carcinoma combined + …) of 40 mg/kg/day. It also gave an LEL [2, 15] of 20 mg/kg/day, an NEL [2, 15] of less than 20 mg/kg/day and an LEL [3, 14] of 40 mg/kg/day. The LOAEL [3, 14] was 80 mg/kg/day, the NEL [3, 16] was 20 mg/kg/day and the NOAEL [3, 16] was 40 mg/kg/day. It also gave an LOAEL [4, 17] greater than 190 mg/kg/day, an NEL [4, 17] of 26 mg/kg/day and an NOAEL [4, 17] of no less than 190 mg/kg/day. For the same compound, the LEL ([4]; group: offspring, systemic / in life observation / food consumption / food consumption) was 87 mg/kg/day, the LOAEL [4, 18] was greater than 190 mg/kg/day and the NOAEL [4, 18] was no less than 190 mg/kg/day. It also gave an LEL [4, 19] of 24 mg/kg/day, an NEL [4, 19] of less than 24 mg/kg/day and an LEL [4, 20] of 190 mg/kg/day. It also gave an LOAEL [4, 20] greater than 190 mg/kg/day, an NEL [4, 20] of 87 mg/kg/day and an NOAEL [4, 20] of no less than 190 mg/kg/day. It also gave an LEL [5, 21] of 100 mg/kg/day, an LOAEL [5, 21] greater than 200 mg/kg/day and an NEL [5, 21] of 50 mg/kg/day. The NOAEL [5, 21] was no less than 200 mg/kg/day, the LEL [5, 22] was 200 mg/kg/day and the LOAEL [5, 22] was greater than 200 mg/kg/day. It also gave an NEL [5, 22] of 100 mg/kg/day, an NOAEL [5, 22] of no less than 200 mg/kg/day and an LEL ([6]; systemic / in life observation / body weight / body weight + systemic / hematology / [other] / [other] + systemic / hematology / erythrocyte…) of 40 mg/kg/day. It also gave an LOAEL ([6]; systemic / in life observation / body weight / body weight + systemic / in life observation / body weight / body weight gain) of 80 mg/kg/day, an NEL [6, 23] of 20 mg/kg/day and an NOAEL [6, 23] of 40 mg/kg/day. It also gave an LEL [7, 24] of 140 mg/kg/day, an LOAEL [7, 24] greater than 140 mg/kg/day and an NEL [7, 24] of 70 mg/kg/day. It also gave an NOAEL [7, 24] of no less than 140 mg/kg/day, an LEL [7, 25] of 140 mg/kg/day and an LOAEL [7, 25] greater than 140 mg/kg/day. The NEL [7, 25] was 70 mg/kg/day and the NOAEL [7, 25] was no less than 140 mg/kg/day.
With `N#CSCSC#N` [Methylene bis(thiocyanate)] the LOAEL [8, 26] was 2 mg/kg/day, the NOAEL [8, 26] was 0.5 mg/kg/day and the LEL [8, 27] was 0.5 mg/kg/day. The NEL [8, 27] was less than 0.5 mg/kg/day, the LEL [9] was 3 mg/kg/day and the LOAEL [9] was 3 mg/kg/day. The NEL [9] was 1.2 mg/kg/day, the NOAEL [9] was 1.2 mg/kg/day and the LEL [10, 28] was 1 mg/kg/day. It also gave an NEL [10, 28] of less than 1 mg/kg/day, an LOAEL ([10]; systemic / in life observation / mortality / mortality) of 2 mg/kg/day and an NOAEL ([10]; systemic / in life observation / mortality / mortality + systemic / clinical chemistry / alanine aminotransferase (alt/sgpt) / alanine …) of 1 mg/kg/day. For the same compound, the LOAEL [11, 29] was 0.4 mg/kg/day, the NOAEL [11, 29] was less than 0.4 mg/kg/day and the LEL [11, 30] was 0.4 mg/kg/day. It also gave an NEL [11, 30] of less than 0.4 mg/kg/day, an LOAEL [12, 31] greater than 16 mg/kg/day and an NOAEL [12, 31] of no less than 16 mg/kg/day. For the same compound, the LEL [12, 32] was 1 mg/kg/day and the NEL [12, 32] was less than 1 mg/kg/day.
